# Results taken from ChEMBL document CHEMBL4152218, “Novel hydrazide-hydrazone and amide substituted coumarin derivatives: Synthesis, cytotoxicity screening, microarray, radiolabeling and in vivo pharmacokinetic studies” (Eur J Med Chem, 2018).
# pIC50: −log10 of the molar value. Active and inactive are the calls of the source. The calls are words filed in the database; no cut-off is given here.
# Key:
# [1] = system: PANC-1; test: Effect on GLULP2 gene expression in human PANC1 cells at IC50 after 48 hrs by microarray analysis; assay type: functional, cell-based
# [2] = system: HepG2; test: Effect on PYCR1 gene expression in human HepG2 cells at IC50 after 48 hrs by microarray analysis; assay type: functional, cell-based
# [3] = system: HepG2; test: Effect on GADD45A gene expression in human HepG2 cells at IC50 after 48 hrs by microarray analysis; assay type: functional, cell-based
# [4] = system: HepG2; test: Effect on CASP7 gene expression in human HepG2 cells at IC50 after 48 hrs by microarray analysis relative to control; assay type: functional
# [5] = system: PANC-1; test: Effect on ITGA2 gene expression in human PANC1 cells at IC50 after 48 hrs by microarray analysis; assay type: functional, cell-based
# [6] = system: hTERT-BJ; test: Cytotoxicity against hTERT-BJ cells at 6.25 uM after 48 hrs by resazurin dye-based fluorescence assay relative to control; assay type: cell-based; settings: human
# [7] = Selectivity index, ratio of IC50 for hTERT-RPE1 cells to IC50 for human PANC1 cells; assay type: toxicity; settings: hTERT-RPE1 cells versus PANC1 cells, read-out: Ratio IC50
# [8] = Selectivity index, ratio of IC50 for hTERT-BJ cells to IC50 for human PANC1 cells; assay type: toxicity; settings: hTERT-BJ cells versus PANC1 cells, read-out: Ratio IC50
# [9] = Selectivity index, ratio of IC50 for hTERT-BJ cells to IC50 for human HepG2 cells; assay type: toxicity; settings: hTERT-BJ cells versus HepG2 cells, read-out: Ratio IC50
# [10] = system: PANC-1; test: Effect on HIST1H4C gene expression in human PANC1 cells at IC50 after 48 hrs by microarray analysis; assay type: functional, cell-based
# [11] = system: HepG2; test: Effect on TOP2A gene expression in human HepG2 cells at IC50 after 48 hrs by microarray analysis; assay type: functional, cell-based
# [12] = system: HepG2; test: Effect on WDR26 gene expression in human HepG2 cells at IC50 after 48 hrs by microarray analysis; assay type: functional, cell-based
# [13] = system: HepG2; test: Effect on PRPF4B gene expression in human HepG2 cells at IC50 after 48 hrs by microarray analysis; assay type: functional, cell-based
# [14] = system: PANC-1; test: Effect on EIF5 gene expression in human PANC1 cells at IC50 after 48 hrs by microarray analysis; assay type: functional, cell-based
# [15] = system: PANC-1; test: Effect on ABCB4 gene expression in human PANC1 cells at IC50 after 48 hrs by microarray analysis; assay type: functional, cell-based
# [16] = system: PANC-1; test: Effect on ZNF148 gene expression in human PANC1 cells at IC50 after 48 hrs by microarray analysis; assay type: functional, cell-based
# [17] = system: PANC-1; test: Effect on UPP1 gene expression in human PANC1 cells at IC50 after 48 hrs by microarray analysis; assay type: functional, cell-based
# [18] = system: HepG2; test: Effect on TOP3A gene expression in human HepG2 cells at IC50 after 48 hrs by microarray analysis; assay type: functional, cell-based
# [19] = system: HepG2; test: Effect on GST A1 gene expression in human HepG2 cells at IC50 after 48 hrs by microarray analysis; assay type: functional, cell-based
# [20] = system: HepG2; test: Effect on GDF15 gene expression in human HepG2 cells at IC50 after 48 hrs by microarray analysis; assay type: functional, cell-based
# [21] = system: PANC-1; test: Effect on LIMK1 gene expression in human PANC1 cells at IC50 after 48 hrs by microarray analysis; assay type: functional, cell-based
# [22] = system: HepG2; test: Effect on INHBE gene expression in human HepG2 cells at IC50 after 48 hrs by microarray analysis; assay type: functional, cell-based
# [23] = system: HepG2; test: Effect on GRP gene expression in human HepG2 cells at IC50 after 48 hrs by microarray analysis; assay type: functional, cell-based
# [24] = system: HepG2; test: Effect on TOP3B gene expression in human HepG2 cells at IC50 after 48 hrs by microarray analysis; assay type: functional, cell-based
# [25] = Selectivity index, ratio of IC50 for hTERT-RPE1 cells to IC50 for human CCRF-CEM cells; assay type: toxicity; settings: hTERT-RPE1 cells versus CCRF-CEM cells, read-out: Ratio IC50
# [26] = system: HepG2; test: Effect on CASP8 gene expression in human HepG2 cells at IC50 after 48 hrs by microarray analysis; assay type: functional, cell-based
# [27] = system: PANC-1; test: Effect on CASP7 gene expression in human PANC1 cells at IC50 after 48 hrs by microarray analysis; assay type: functional, cell-based
# [28] = system: PANC-1; test: Effect on JMJD2B gene expression in human PANC1 cells at IC50 after 48 hrs by microarray analysis; assay type: functional, cell-based
# [29] = system: HepG2; test: Effect on TOP2A gene expression in human HepG2 cells at IC50 after 48 hrs by microarray analysis relative to control; assay type: functional
# [30] = system: HepG2; test: Effect on SYT2 gene expression in human HepG2 cells at IC50 after 48 hrs by microarray analysis; assay type: functional, cell-based
# [31] = system: HepG2; test: Effect on MYO 10 gene expression in human HepG2 cells at IC50 after 48 hrs by microarray analysis; assay type: functional, cell-based
# [32] = system: TERT-RPE1; test: Cytotoxicity against hTERT-RPE1 cells at 6.25 uM after 48 hrs by resazurin dye-based fluorescence assay relative to control; assay type: cell-based; settings: human, tert-rpe1, 48 h
# [33] = system: TERT-RPE1; test: Cytotoxicity against hTERT-RPE1 cells at 12.50 uM after 48 hrs by resazurin dye-based fluorescence assay relative to control; assay type: cell-based; settings: human, tert-rpe1, 48 h, 12.5 µM
# [34] = target: Cytochrome P450 3A4 (Homo sapiens, UniProt P08684); test: Inhibition of human recombinant CYP3A4 using luciferin as substrate preincubated for 10 mins followed by substrate addition and measured after 50 mins in presence of NADPH by CYP450-Glo assay; assay type: ADME; settings: recombinant enzyme
# Chain of Cytochrome P450 3A4 (P08684 whole entry): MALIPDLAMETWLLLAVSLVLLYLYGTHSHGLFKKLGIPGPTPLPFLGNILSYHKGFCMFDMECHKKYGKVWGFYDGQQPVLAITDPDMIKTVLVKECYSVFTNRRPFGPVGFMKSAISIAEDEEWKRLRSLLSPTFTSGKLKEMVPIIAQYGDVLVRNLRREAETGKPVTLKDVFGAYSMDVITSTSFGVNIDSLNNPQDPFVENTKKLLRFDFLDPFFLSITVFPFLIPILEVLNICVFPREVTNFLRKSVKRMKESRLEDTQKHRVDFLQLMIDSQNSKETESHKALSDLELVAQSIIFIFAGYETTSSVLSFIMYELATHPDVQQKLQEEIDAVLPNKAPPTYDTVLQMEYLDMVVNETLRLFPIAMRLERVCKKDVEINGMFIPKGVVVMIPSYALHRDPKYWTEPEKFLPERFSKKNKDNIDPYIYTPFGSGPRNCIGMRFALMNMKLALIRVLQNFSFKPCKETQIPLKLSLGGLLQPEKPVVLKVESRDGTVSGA
# [35] = system: HepG2; test: Effect on AKR1B10 gene expression in human HepG2 cells at IC50 after 48 hrs by microarray analysis; assay type: functional, cell-based
# [36] = system: PANC-1; test: Effect on CLDN14 gene expression in human PANC1 cells at IC50 after 48 hrs by microarray analysis; assay type: functional, cell-based
# [37] = system: hTERT-BJ; test: Cytotoxicity against hTERT-BJ cells at 50 uM after 48 hrs by resazurin dye-based fluorescence assay relative to control; assay type: cell-based; settings: human
# [38] = system: PANC-1; test: Effect on ABCB1 gene expression in human PANC1 cells at IC50 after 48 hrs by microarray analysis; assay type: functional, cell-based
# [39] = system: TERT-RPE1; test: Cytotoxicity against hTERT-RPE1 cells after 48 hrs by resazurin dye-based fluorescence assay; assay type: cell-based; settings: Homo sapiens, RPE-1, 48 h
# [40] = system: HepG2; test: Antiproliferative activity against human HepG2 cells after 48 hrs by resazurin dye-based fluorescence assay; assay type: functional, cell-based; settings: HepG2, 48 h
# [41] = system: HepG2; test: Effect on LANCL 1 gene expression in human HepG2 cells at IC50 after 48 hrs by microarray analysis; assay type: functional, cell-based
# [42] = system: HepG2; test: Effect on CXCR3 gene expression in human HepG2 cells at IC50 after 48 hrs by microarray analysis; assay type: functional, cell-based
# [43] = system: PANC-1; test: Effect on PAH gene expression in human PANC1 cells at IC50 after 48 hrs by microarray analysis; assay type: functional, cell-based
# [44] = system: TERT-RPE1; test: Cytotoxicity against hTERT-RPE1 cells at 50 uM after 48 hrs by resazurin dye-based fluorescence assay relative to control; assay type: cell-based; settings: human, tert-rpe1, 48 h
# [45] = system: PANC-1; test: Effect on CYP3A4 gene expression in human PANC1 cells at IC50 after 48 hrs by microarray analysis; assay type: ADME, cell-based; settings: panc-1, 48 h
# [46] = system: HepG2; test: Effect on GST A2 gene expression in human HepG2 cells at IC50 after 48 hrs by microarray analysis; assay type: functional, cell-based
compound,measurement,setting,value
O=C(N/N=C/c1cc2ccccc2nc1Cl)c1cc2cc(Br)ccc2oc1=O,Activity,[1],Active
same,Activity,[2],Active
same,Activity,[3],Active
same,fold change (FC),[4],3.18
same,Activity,[5],Active
same,Activity,[6],1.98%
same,selectivity ratio,[7],> 9.18
same,selectivity ratio,[8],> 9.18
same,selectivity ratio,[9],> 5.31
same,Activity,[10],Active
same,Activity,[11],Active
same,Activity,[12],Active
same,Activity,[13],Active
same,Activity,[14],Active
same,Activity,[15],Active
same,Activity,[16],Active
same,Activity,[17],Active
same,Activity,[18],Active
same,Activity,[19],Active
same,Activity,[20],Active
same,Activity,[21],Active
same,Activity,[22],Active
same,Activity,[23],Active
same,Activity,[24],Active
same,selectivity ratio,[25],> 6.71
same,Activity,[26],Active
same,Activity,[27],Active
same,Activity,[28],Active
same,fold change (FC),[29],-3.57
same,Activity,[30],Active
same,Activity,[31],Active
same,Activity,[32],0.94%
same,Activity,[33],12.73%
same,inhibition (INH),[34],Dose-dependent effect
same,Activity,[35],Active
same,Activity,[36],Active
same,Activity,[37],5.18%
same,Activity,[38],Active
same,pIC50,[39],< 4.30
same,pIC50,[40],5.03
same,Activity,[41],Active
same,Activity,[42],Active
same,Activity,[43],Active
same,Activity,[44],20.18%
same,Activity,[45],Active
same,Activity,[46],Active
